Among the data in BindingDB's records for doi:10.1016/j.bmcl.2004.09.053 (Avenida De La Industria, 2004) are IC50 values, retold here.

For orientation: IC50 means the concentration that gives 50% inhibition. A lower IC50 goes with inhibition by little substance.

Assay in all cases: CDK Kinase Inhibition Assay
The target of assay [1] is Cyclin-dependent kinase 2/G1/S-specific cyclin-E1 (Homo sapiens, UniProt P24941). How it is done:
(§1) In vitro CDK assay using purified enzyme, was incubated at room temperature with substrate, and test compounds in the presence of ATP/[gamma-33P]ATP. 33P incorporation was measured with a Top Count (Packard). IC50 is the inhibitor concentration which inhibits 50% of kinase activity that catalyzes the transfer of the terminal phosphate from 33P labeled ATP to the substrate.

For assay [2], the target named is Cyclin-dependent kinase/G2/mitotic-specific cyclin- 1 (Homo sapiens, UniProt P06493). The conditions noted are these: 25 °C. How it is done:
as §1

For assay [3], the target named is Cyclin-dependent kinase 4/G1/S-specific cyclin-D1 (Homo sapiens, UniProt P11802). To be noted: 25 °C. How it is done: as §1
Sequence of Cyclin-dependent kinase 4/G1/S-specific cyclin-D1 (P11802 whole entry): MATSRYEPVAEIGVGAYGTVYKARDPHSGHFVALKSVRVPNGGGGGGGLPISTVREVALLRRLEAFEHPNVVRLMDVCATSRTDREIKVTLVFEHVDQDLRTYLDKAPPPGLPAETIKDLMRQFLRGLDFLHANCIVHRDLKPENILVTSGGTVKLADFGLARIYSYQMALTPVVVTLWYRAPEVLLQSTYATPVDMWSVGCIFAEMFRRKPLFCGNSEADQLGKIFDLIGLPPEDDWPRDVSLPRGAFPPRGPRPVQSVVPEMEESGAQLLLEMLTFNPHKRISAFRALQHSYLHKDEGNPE
Sequence of Cyclin-dependent kinase 4/G1/S-specific cyclin-D1 (P24385 whole entry, further chain): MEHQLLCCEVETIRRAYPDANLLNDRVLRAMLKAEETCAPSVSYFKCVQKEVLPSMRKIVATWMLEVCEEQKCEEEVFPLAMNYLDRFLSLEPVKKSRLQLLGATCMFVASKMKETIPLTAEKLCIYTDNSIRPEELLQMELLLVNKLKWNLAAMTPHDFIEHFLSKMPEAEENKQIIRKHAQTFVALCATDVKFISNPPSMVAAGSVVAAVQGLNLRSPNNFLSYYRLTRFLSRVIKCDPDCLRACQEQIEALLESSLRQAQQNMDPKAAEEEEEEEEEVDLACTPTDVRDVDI

Sequence of Cyclin-dependent kinase/G2/mitotic-specific cyclin- 1 (P06493 whole entry): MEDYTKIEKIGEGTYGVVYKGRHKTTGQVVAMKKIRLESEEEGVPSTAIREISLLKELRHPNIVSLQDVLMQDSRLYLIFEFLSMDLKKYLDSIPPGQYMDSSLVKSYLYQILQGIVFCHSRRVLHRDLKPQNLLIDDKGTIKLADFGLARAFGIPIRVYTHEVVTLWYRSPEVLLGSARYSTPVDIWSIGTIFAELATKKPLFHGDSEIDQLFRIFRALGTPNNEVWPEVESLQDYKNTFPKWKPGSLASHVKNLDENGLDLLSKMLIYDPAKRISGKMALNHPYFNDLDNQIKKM
Sequence of Cyclin-dependent kinase/G2/mitotic-specific cyclin- 1 (P14635 whole entry, further chain): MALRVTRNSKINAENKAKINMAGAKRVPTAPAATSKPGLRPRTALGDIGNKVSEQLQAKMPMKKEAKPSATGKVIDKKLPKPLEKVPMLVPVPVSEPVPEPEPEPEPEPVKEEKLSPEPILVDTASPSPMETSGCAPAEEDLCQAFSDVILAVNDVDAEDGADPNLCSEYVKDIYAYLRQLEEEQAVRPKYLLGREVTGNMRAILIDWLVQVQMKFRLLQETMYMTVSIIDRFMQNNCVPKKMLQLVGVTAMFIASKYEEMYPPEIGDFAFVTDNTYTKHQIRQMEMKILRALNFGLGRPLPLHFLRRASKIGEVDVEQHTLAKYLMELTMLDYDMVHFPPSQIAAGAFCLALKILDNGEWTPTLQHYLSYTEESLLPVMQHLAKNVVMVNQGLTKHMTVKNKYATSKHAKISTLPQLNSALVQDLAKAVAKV

In assay [1] (25 °C), `CCN(CC)CCOc1cc(F)c(C(=O)c2c(N)nc3ccc(C(=O)c4c(Cl)cccc4Cl)cn23)c(F)c1` [6-[(2,6-dichlorophenyl)carbonyl]-3-({4-[2-(diethylamino)ethoxy]-2,6-difluorophenyl}carbonyl)imidazo[1,2-a]pyridin-2-amine] yielded an IC50 of 0.984 µM.

With `N#C/C=C(\c1ccc2nc(N)c(C(=O)c3c(F)cccc3F)n2c1)c1c(F)cccc1F` [(2E)-3-{2-amino-3-[(2,6-difluorophenyl)carbonyl]imidazo[1,2-a]pyridin-6-yl}-3-(2,6-difluorophenyl)prop-2-enenitrile], the IC50 in assay [2] is 0.053 µM; in assay [3], 1.55 µM; in assay [1] (pH 7, 22 °C), 0.16 µM.

For `N#C/C=C(/c1ccc2nc(N)c(C(=O)c3c(F)cccc3F)n2c1)c1c(F)cccc1F` [(2Z)-3-{2-amino-3-[(2,6-difluorophenyl)carbonyl]imidazo[1,2-a]pyridin-6-yl}-3-(2,6-difluorophenyl)prop-2-enenitrile], the IC50 in assay [1] (25 °C) was determined as 0.896 µM. That is a sub-micromolar value.
